Measurements published in patent publication US20050054013A1, “Methods and products for identifying modulators of P2X7 receptor activity, and their use in the treatment of skeletal disorders” (Pfizer Inc, priority 2001, published 2005).

What was measured:
IL-6 = assay: In vivo cytokine production: IL-6 in peritoneal lavage of LPS-primed mice by ELISA; settings: LPS-primed mice subsequently challenged with ATP; 4 hour time point
Procedure: Groups of mice are injected intraperitoneally (ip) with 1 μg of LPS. […] Samples of peritoneal lavages are spun down, and the supernatants are collected and tested for the presence of IL-1β and IL-6 using ELISAs (Amersham Life Sciences, Arlington Heights, Va. and Endogen, Woburn, Mass., respectively).
IL-1 signaling may lead to the production of other cytokines such as IL-6 (Allen et al. (2000), J. Exp. Med. 191:859-869). […] The animals are incubated for an additional period (e.g., 4 hours) and peritoneal lavages are collected several times during the course of the incubation and analyzed for cytokines by ELISA. […] By 4 hours, however, IL-6 levels recovered from the LPS-PBS treated animals returned to baseline.

P2X7 receptor = target: T1, P2X7 receptor (Mus musculus, UniProt Q9Z1M0); assay: P2X7 receptor-mediated YoPro Yellow uptake in peritoneal macrophages; format: cell-based; settings: peritoneal macrophages from wild-type animals, 5 mM ATP, extracellular YoPro Yellow
T1 construct: endogenous in cells; host or cells: peritoneal macrophages isolated from wild-type animals
T1 sequence (Q9Z1M0 1-595): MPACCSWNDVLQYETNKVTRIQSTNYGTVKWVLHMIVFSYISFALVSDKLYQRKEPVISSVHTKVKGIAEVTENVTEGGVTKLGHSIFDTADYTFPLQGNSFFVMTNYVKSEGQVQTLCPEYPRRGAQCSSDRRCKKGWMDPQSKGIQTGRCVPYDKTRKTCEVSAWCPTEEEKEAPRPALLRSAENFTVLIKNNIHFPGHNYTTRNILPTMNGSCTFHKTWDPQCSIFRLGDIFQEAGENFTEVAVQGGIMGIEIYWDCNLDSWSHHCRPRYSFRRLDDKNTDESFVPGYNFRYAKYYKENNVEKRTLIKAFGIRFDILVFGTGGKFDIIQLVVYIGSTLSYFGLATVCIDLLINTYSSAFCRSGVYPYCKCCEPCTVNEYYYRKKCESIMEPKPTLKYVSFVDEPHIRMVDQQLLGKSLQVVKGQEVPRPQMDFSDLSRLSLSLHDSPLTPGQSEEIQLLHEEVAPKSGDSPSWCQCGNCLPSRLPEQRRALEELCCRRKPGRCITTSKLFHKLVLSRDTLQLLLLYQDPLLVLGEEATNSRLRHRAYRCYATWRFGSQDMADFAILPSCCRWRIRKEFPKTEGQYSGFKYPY
Procedure: This increase in fluorescence results from internalization of the dye molecules followed by their binding to DNA; when bound to DNA, the fluorescence intensity increases.
When assaying P2X7 receptor function using isolated macrophages, the peritoneal macrophages are washed with isotonic medium (15 mM HEPES, pH 7.2, 135 mM NaCl, 5 mM KCl, […], […]) by centrifugation and the resulting cell pellet is suspended in isotonic medium to achieve a final cell concentration of about 1×10^6 cells/ml. Fifty μl of this cell suspension is placed into the wells of a plate (e.g., Microfluor “B” U-bottom plate, Dynatech, Chantilly, Va.), and 50 μl of a fluorescent dye (e.g., 2 μM YoPro Yellow, Molecular Probes, Eugene, Oreg.) dissolved in the isotonic medium is added to each well. Test compounds or control vehicles are added to the wells with or without the addition of […]. Fluorescence is monitored as a function of time at […]. For YoPro Yellow dye, excitation is at 450 nm and emission is measured at 530 nm. Test compounds which stimulate P2X7 receptor activity increase fluorescence as compared to control samples that lack test compound.

other P2X receptors = settings: cited from earlier work

In the case of Nc1ncnc2c1ncn2[C@@H]1O[C@H](COP(=O)(O)OP(=O)(O)OP(=O)(O)O)[C@@H](O)[C@H]1O [ATP, adenosine triphosphate], the “lavage fluid IL-6, peak value” (IL-6) is given as > 25 ng/mL, the “fluorescence intensity (YoPro Yellow internalization)” value (P2X7 receptor) is given as “time dependent increase in fluorescence intensity” and the “ATP concentrations at which receptors activate” value (other P2X receptors) is given as “less than or equal to 100 μM”.
